Measured values as given in PMC11713868, “Cryo-EM Structure of Recombinantly Expressed hUGDH Unveils a Hidden, Alternative Allosteric Inhibitor” (Biochemistry, 2024).
Values belong to the molecule of their own block, whether it stands above or below them.

Tests used:
[1] = biological target: T1, Human UDP-glucose dehydrogenase (hUGDH) (Homo sapiens, UniProt O60701); experiment: cryo-EM structure ([…] Å) of copurified complex, HPLC/NMR/MS ligand identification; Ki from global fit of competitive inhibition kinetics; format: biochemical; set-up: gene UGDH; recombinant hUGDH, N-terminal His tag removed by TEV; hexamer
T1 sequence (O60701 1-494): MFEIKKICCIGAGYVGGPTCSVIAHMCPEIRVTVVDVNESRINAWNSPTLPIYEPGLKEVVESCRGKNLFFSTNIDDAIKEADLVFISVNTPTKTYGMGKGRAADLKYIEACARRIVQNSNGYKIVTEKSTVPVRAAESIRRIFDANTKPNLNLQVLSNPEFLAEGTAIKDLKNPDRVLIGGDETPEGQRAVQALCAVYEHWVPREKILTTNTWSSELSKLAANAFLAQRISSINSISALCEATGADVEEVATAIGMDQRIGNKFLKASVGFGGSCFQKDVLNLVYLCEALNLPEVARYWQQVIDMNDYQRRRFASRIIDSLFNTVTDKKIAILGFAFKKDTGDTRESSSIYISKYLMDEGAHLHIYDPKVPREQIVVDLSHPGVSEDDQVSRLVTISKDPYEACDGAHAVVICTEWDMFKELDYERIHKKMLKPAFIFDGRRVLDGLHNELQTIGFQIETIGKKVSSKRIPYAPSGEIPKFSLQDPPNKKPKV

[2] = biological target: T1, Human UDP-glucose dehydrogenase (hUGDH); experiment: NADH absorbance ([…] nm) steady-state kinetics, global fit of UDP-Glc saturation curves; format: biochemical; set-up: gene UGDH; recombinant unliganded hUGDH, His tag removed
[3] = biological target: the molecule itself; experiment: cryo-EM structure; hUGDH:UX4O (copurified UDP-4-keto-xylose bound), 1 mg/mL, 20 mM Hepes pH 7.5, 100 mM NaCl, 1 mM DTT; C2 reconstruction at 2.38 Å, E-omega state
purified protein = substrate: NC(=O)c1ccc[n+]([C@@H]2O[C@H](COP(=O)([O-])OP(=O)(O)OC[C@H]3O[C@@H](n4cnc5c(N)ncnc54)[C@H](O)[C@@H]3O)[C@@H](O)[C@H]2O)c1; experiment: purified protein; format: biochemical, Homo sapiens; conditions: NAD^+ binding (NB) domain; negative cooperativity; varied: cofactor

Ki [1]: 750 ± 60 nM
Molecule: O=C1CO[C@H](OP(=O)(O)OP(=O)(O)OC[C@H]2O[C@@H](n3ccc(=O)[nH]c3=O)[C@H](O)[C@@H]2O)[C@H](O)[C@H]1O [UX4O, UDP-4-keto-xylose]

Ki [2]: 440 ± 20 nM
Molecule: O=c1ccn([C@@H]2O[C@H](COP(=O)(O)OP(=O)(O)O[C@H]3OC[C@@H](O)[C@H](O)[C@H]3O)[C@@H](O)[C@H]2O)c(=O)[nH]1 [UDP-Xyl, UDP-xylose]

B1: Human UDP-glucose dehydrogenase (hUGDH) (enzyme)
chain: MFEIKKICCIGAGYVGGPTCSVIAHMCPEIRVTVVDVNESRINAWNSPTLPIYEPGLKEVVESCRGKNLFFSTNIDDAIKEADLVFISVNTPTKTYGMGKGRAADLKYIEACARRIVQNSNGYKIVTEKSTVPVRAAESIRRIFDANTKPNLNLQVLSNPEFLAEGTAIKDLKNPDRVLIGGDETPEGQRAVQALCAVYEHWVPREKILTTNTWSSELSKLAANAFLAQRISSINSISALCEATGADVEEVATAIGMDQRIGNKFLKASVGFGGSCFQKDVLNLVYLCEALNLPEVARYWQQVIDMNDYQRRRFASRIIDSLFNTVTDKKIAILGFAFKKDTGDTRESSSIYISKYLMDEGAHLHIYDPKVPREQIVVDLSHPGVSEDDQVSRLVTISKDPYEACDGAHAVVICTEWDMFKELDYERIHKKMLKPAFIFDGRRVLDGLHNELQTIGFQIETIGKKVSSKRIPYAPSGEIPKFSLQDPPNKKPKV
notes: UDP-glucose dehydrogenase, human, UniProtKB O60701; also called hUGDH:UX4O (the same protein with copurified UDP-4-keto-xylose); unliganded hUGDH; source: E. coli, purified (TALON column, TEV protease digestion, Superdex 200); not shown: histidine tag, N-terminal, cleaved
stoichiometry N [3]: 6
Km (purified protein): 83.4 ± 10.4 µM
